Source: US8889668B2, “Oxadiazole diaryl compounds” (Merck Serono SA, priority 2007, dated 2014)

Key:
S1P3 = S1P3 (Homo sapiens (Human), UniProt Q99500); assay: 35S-GTPγS binding, membranes from CHO cells expressing S1P3; format: biochemical; conditions: 60 min 30° C., read-out: S1P3 GTPgs EC50
Description: (§1) Receptor binding assay: Membranes were prepared from CHO cells expressing S1P1 or S1P3 for use in ligand and […] binding studies. Cells were suspended in 50 mM TRIS, pH 7.4, 2 mM EDTA, 250 mM Sucrose (buffer A) and 1× Complete protease inhibitor cocktail (Roche), and disrupted at 4° C. by nitrogen decompression using a cell disruption bomb (Parr Instrument). Following centrifugation at 1000 RPM for 10 min at 4° C., the supernatant was suspended in buffer A and centrifuged again at 19000 RPM for 60 min at 4° C. The pellet was then suspended in 10 mM HEPES, pH 7.4, 1 mM EDTA, 250 mM Sucrose (Buffer B), and 1× Complete EDTA-free protease inhibitor cocktail and homogenized using a potter. Membranes were flash frozen in liquid nitrogen and stored at −80° C. [33P]sphingosine 1-phosphate (3000 Ci/mmol; American Radiolabeled Chemicals, Inc.) was added to test compounds in DMSO. Membranes and WGA SPA beads (GE Healthcare) were added to give a final volume of 100 μl in 96-well plates with assay concentrations of 25 pM or 10 pM [33P]sphingosine 1-phosphate (respectively for S1P1 or S1P3), 50 mM HEPES, pH 7.5, 5 mM MgCl2, 100 mM NaCl, 0.4% fatty acid-free BSA, 1-5 μg/well of proteins and 100 μg/well of WGA SPA beads. Binding was performed for 60 min at room temperature on a shaker and bound radioactivity was measured on a PerkinElmer 1450 MicroBeta counter. Specific binding was calculated by subtracting remaining radioactivity in the presence of 1000-fold excess of unlabeled S1P. Binding data were analyzed using the GraphPad Prism program.
Measurements of ^35S-GTPγS Binding: Membranes (1 to 10 μg protein) prepared as described above, were incubated in 96-well Scintiplates (PerkinElmer) with test compounds diluted in DMSO, in 180 μl of 20 mM HEPES, pH 7.4, 10 mM MgCl2, 2 μg/well Saponin, 0.2% fatty acid free BSA (Assay buffer), 140 mM NaCl and 1.7 μM GDP. The assay was initiated with the addition of 20 μl of 1.5 nM [35S]-GTPγS (1100 Ci/mmol; GE Healthcare) in assay buffer. After 60 min incubation at 30° C. on a shaker, plates were centrifuged for 10 min at 2000 RPM. Supernatant was discarded and membrane bound radioactivity was measured on a PerkinElmer 1450 MicroBeta counter. Triplicate samples were averaged and expressed as % response relative to S1P activation in absence of compound (n=2).

S1P1 [1] = biological target: T1, S1P1 (Homo sapiens (Human), UniProt P21453); assay: Receptor binding assay, [33P]sphingosine 1-phosphate, membranes from CHO cells expressing S1P1; conditions: [33P]S1P 25 pM, SPA
Description: as §1

S1P1 [2] = biological target: T1, S1P1; assay: 35S-GTPγS binding, membranes from CHO cells expressing S1P1; format: biochemical; conditions: 60 min 30° C., read-out: S1P1 GTPgS EC50

T1 sequence (P21453 whole entry, species assumed): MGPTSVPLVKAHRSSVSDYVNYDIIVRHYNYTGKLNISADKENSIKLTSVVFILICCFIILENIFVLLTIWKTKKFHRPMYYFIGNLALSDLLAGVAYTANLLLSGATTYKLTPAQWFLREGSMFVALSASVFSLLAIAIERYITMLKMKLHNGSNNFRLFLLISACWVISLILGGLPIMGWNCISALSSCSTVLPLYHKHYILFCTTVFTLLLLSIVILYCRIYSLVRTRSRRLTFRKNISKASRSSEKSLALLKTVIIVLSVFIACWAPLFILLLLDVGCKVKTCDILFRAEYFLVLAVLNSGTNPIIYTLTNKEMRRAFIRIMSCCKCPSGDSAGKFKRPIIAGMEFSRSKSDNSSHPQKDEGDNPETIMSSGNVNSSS
Sequence of S1P3 (Q99500 whole entry, species assumed): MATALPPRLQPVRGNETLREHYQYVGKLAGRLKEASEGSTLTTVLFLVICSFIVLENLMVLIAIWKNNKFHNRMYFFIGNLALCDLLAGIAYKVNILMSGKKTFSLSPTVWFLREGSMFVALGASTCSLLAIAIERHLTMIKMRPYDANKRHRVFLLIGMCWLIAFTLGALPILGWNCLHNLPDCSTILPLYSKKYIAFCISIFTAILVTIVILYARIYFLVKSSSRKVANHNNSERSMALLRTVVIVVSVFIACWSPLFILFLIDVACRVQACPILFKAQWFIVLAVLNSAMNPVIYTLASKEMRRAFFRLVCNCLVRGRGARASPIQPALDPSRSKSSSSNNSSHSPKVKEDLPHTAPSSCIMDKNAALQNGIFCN

| EC50 (S1P3) | Ki (S1P1 [1]) | EC50 (S1P1 [2]) | SMILES |
| --- | --- | --- | --- |
| > 20 µM | 11 nM | 27 nM | COc1ccccc1-c1noc(-c2ccc(N3CCCCC3)c([N+](=O)[O-])c2)n1 [Compound I1, 1-{4-[3-(2-methoxyphenyl)-1,2,4-oxadiazol-5-yl]-2-nitrophenyl}piperidine] |
| > 30 µM | 18 nM | 51 nM | COc1ccccc1-c1noc(-c2ccc(N3CCOCC3)c([N+](=O)[O-])c2)n1 [Compound I2, 4-{4-[3-(2-methoxyphenyl)-1,2,4-oxadiazol-5-yl]-2-nitrophenyl}morpholine] |
|  | 652 nM | 1780 nM | FC(F)(F)Oc1ccccc1-c1noc(-c2ccc(N3CCCCC3)cc2)n1 [Compound I3, 1-(4-{3-[2-(trifluoromethoxy)phenyl]-1,2,4-oxadiazol-5-yl}phenyl)piperidine] |
|  | 1070 nM | 3600 nM | COc1ccccc1-c1noc(-c2ccc(N3CCCCC3)cc2)n1 [Compound I4, 1-{4-[3-(2-methoxyphenyl)-1,2,4-oxadiazol-5-yl]phenyl}piperidine] |
| > 30 µM |  | 18 nM | CC1CCCCN1c1ccc(-c2nc(-c3ccccc3OC(F)(F)F)no2)cc1[N+](=O)[O-] (centres unmarked) [Compound I8, 2-methyl-1-(2-nitro-4-{3-[2-(trifluoromethoxy)phenyl]-1,2,4-oxadiazol-5-yl}phenyl)piperidine] |
| 5.41 µM |  | 7 nM | COc1ccccc1-c1noc(-c2ccc(N3CCCCC3C)c([N+](=O)[O-])c2)n1 (centres unmarked) [Compound I9, 1-{4-[3-(2-methoxyphenyl)-1,2,4-oxadiazol-5-yl]-2-nitrophenyl}-2-methylpiperidine] |
| > 30 µM |  | 24 nM | CCOc1ccccc1-c1noc(-c2ccc(N3CCCCC3C)c([N+](=O)[O-])c2)n1 (centres unmarked) [Compound I10, 1-{4-[3-(2-ethoxyphenyl)-1,2,4-oxadiazol-5-yl]-2-nitrophenyl}-2-methylpiperidine] |
| > 30 µM |  | 36 nM | COc1ccccc1-c1noc(-c2ccc(N3CCCC(F)(F)C3)c([N+](=O)[O-])c2)n1 [Compound I12, 3,3-difluoro-1-{4-[3-(2-methoxyphenyl)-1,2,4-oxadiazol-5-yl]-2-nitrophenyl}piperidine] |
| > 30 µM | 7 nM | 6 nM | COc1ccccc1-c1noc(-c2ccc(N3CCOCC3)c(C(F)(F)F)c2)n1 [Compound I18, 4-[4-[3-(2-methoxyphenyl)-1,2,4-oxadiazol-5-yl]-2-(trifluoromethyl)phenyl]morpholine] |
| > 30 µM |  | 18 nM | FC(F)(F)Oc1ccccc1-c1noc(-c2ccc(N3CCOCC3)c(C(F)(F)F)c2)n1 [Compound I19, 4-[4-{3-[2-(trifluoromethoxy)phenyl]-1,2,4-oxadiazol-5-yl}-2-(trifluoromethyl)phenyl]morpholine] |
| 3.21 µM | 16 nM | 44 nM | COc1ccccc1-c1noc(-c2ccc(-c3ccccc3C)c(C)c2)n1 [Compound I20, 5-(2,2′-dimethylbiphenyl-4-yl)-3-(2-methoxyphenyl)-1,2,4-oxadiazole] |
| > 30 µM | 8 nM | 4 nM | Cc1ccccc1-c1ccc(-c2nc(-c3ccccc3OC(F)(F)F)no2)cc1C [Compound I21, 5-(2,2′-dimethylbiphenyl-4-yl)-3-[2-(trifluoromethoxy)phenyl]-1,2,4-oxadiazole] |
| > 30 µM |  | 51 nM | CCOc1ccccc1-c1noc(-c2ccc(-c3ccccc3C)c(C)c2)n1 [Compound I22, 5-(2,2′-dimethylbiphenyl-4-yl)-3-(2-ethoxyphenyl)-1,2,4-oxadiazole] |
| > 30 µM | 16 nM | 10 nM | Cc1cc(-c2nc(-c3ccccc3OC(F)(F)F)no2)ccc1-c1ccccc1C(F)(F)F [Compound I23, 5-[2-methyl-2′-(trifluoromethyl)biphenyl-4-yl]-3-[2-(trifluoromethoxy)phenyl]-1,2,4-oxadiazole] |
| 5.49 µM | 3 nM | 9 nM | COc1ccccc1-c1noc(-c2ccc(-c3cscc3C)c(C)c2)n1 [Compound I25, 3-(2-methoxyphenyl)-5-[3-methyl-4-(4-methyl-3-thienyl)phenyl]-1,2,4-oxadiazole] |
| 5.05 µM | 2 nM | 9 nM | COc1ccccc1-c1noc(-c2ccc(-c3ccccc3C)c([N+](=O)[O-])c2)n1 [Compound I26, 3-(2-methoxyphenyl)-5-(2′-methyl-2-nitrobiphenyl-4-yl)-1,2,4-oxadiazole] |
| > 30 µM | 20 nM | 66 nM | COc1ccccc1-c1noc(-c2ccc(C3CCCCC3)cc2)n1 [Compound I27, 5-(4-cyclohexylphenyl)-3-(2-methoxyphenyl)-1,2,4-oxadiazole] |
| > 30 µM | 91 nM | 162 nM | COc1ccccc1-c1noc(-c2ccc(CC(C)C)cc2)n1 [Compound I28, 5-(4-isobutylphenyl)-3-(2-methoxyphenyl)-1,2,4-oxadiazole] |
|  | 25 nM | 59 nM | FC(F)(F)Oc1ccccc1-c1noc(-c2ccc(C3CCCCC3)cc2)n1 [Compound I29, 5-(4-cyclohexylphenyl)-3-[2-(trifluoromethoxy)phenyl]-1,2,4-oxadiazole] |
|  | 43 nM | 6 nM | COc1ccc(F)cc1-c1noc(-c2ccc(-c3ccccc3C)c(C)c2)n1 [Compound I33, 5-(2,2′-dimethylbiphenyl-4-yl)-3-(5-fluoro-2-methoxyphenyl)-1,2,4-oxadiazole] |
| 2.1 µM |  | 10 nM | Cc1ccccc1-c1ccc(-c2nc(-c3ccccc3OC(F)(F)F)no2)cc1[N+](=O)[O-] [Compound I36, 5-(2′-methyl-2-nitrobiphenyl-4-yl)-3-[2-(trifluoromethoxy)phenyl]-1,2,4-oxadiazole] |
| > 20 µM |  | 10 nM | COc1ccccc1-c1ccc(-c2nc(-c3ccccc3OC(F)(F)F)no2)cc1C [Compound I45, 5-(2′-methoxy-2-methylbiphenyl-4-yl)-3-[2-(trifluoromethoxy)phenyl]-1,2,4-oxadiazole] |
| > 20 µM |  | 14 nM | COc1cc(-c2nc(-c3ccccc3OC(F)(F)F)no2)ccc1-c1ccccc1C [Compound I53, 5-(2-methoxy-2′-methylbiphenyl-4-yl)-3-[2-(trifluoromethoxy)phenyl]-1,2,4-oxadiazole] |
| > 30 µM |  | 13 nM | COc1cc(-c2nc(-c3ccccc3OC(F)(F)F)no2)ccc1-c1cscc1C [Compound I54, 5-[3-methoxy-4-(4-methyl-3-thienyl)phenyl]-3-[2-(trifluoromethoxy)phenyl]-1,2,4-oxadiazole] |
|  | 54 nM | 4 nM | FC(F)(F)Oc1ccccc1-c1noc(-c2ccc(N3CCCCC3)c(C(F)(F)F)c2)n1 [Compound I61, 1-[4-{3-[2-(trifluoromethoxy)phenyl]-1,2,4-oxadiazol-5-yl}-2-(trifluoromethyl)phenyl]piperidine] |
|  | 8 nM | 4 nM | COc1ccccc1-c1noc(-c2ccc(-c3ccccc3C)c(C(F)(F)F)c2)n1 [Compound I62, 3-(2-methoxyphenyl)-5-[2′-methyl-2-(trifluoromethyl)biphenyl-4-yl]-1,2,4-oxadiazole] |
| 0.27 µM |  | 24 nM | COc1ccc(F)cc1-c1noc(-c2ccc(N3CCCCC3C)c(N)c2)n1 (centres unmarked) [Compound I69, 5-[3-(5-fluoro-2-methoxyphenyl)-1,2,4-oxadiazol-5-yl]-2-(2-methylpiperidin-1-yl)aniline] |
|  | 4 nM | 2 nM | Cc1cscc1-c1ccc(-c2nc(-c3ccccc3OC(F)(F)F)no2)cc1C(F)(F)F [Compound I70, 5-[4-(4-methyl-3-thienyl)-3-(trifluoromethyl)phenyl]-3-[2-(trifluoromethoxy)phenyl]-1,2,4-oxadiazole] |
|  | 6 nM | 5 nM | COc1ccc(F)cc1-c1noc(-c2cnc(N3CCCCC3C)c(C)c2)n1 (centres unmarked) [Compound I74, 5-[3-(5-fluoro-2-methoxyphenyl)-1,2,4-oxadiazol-5-yl]-3-methyl-2-(2-methylpiperidin-1-yl)pyridine] |
